Measurements published in patent US20060281735A1, “Antipsychotic combination therapies and compositions of an alpha-2 adrenergic receptor antagonist and an atypical antipsychotic neuroleptic” (priority 2002, published 2006).
pKi: −log10 of the molar value.

Columns and labels:
Wistar rats = assay: Conditioned avoidance response (CAR) behavior in rats; format: in vivo; details: rat CAR; 2.5 mg/kg with idazoxan versus about 5 mg/kg alone
From the text: Adult, male Wistar rats, 200-225 g (B & K Universal, Sollentuna, Sweden) were used. The animals were housed under standard laboratory conditions, on a reversed light/dark cycle (lights off 08:00 am), and allowed 1 week of adaptation to laboratory conditions before being used in experiments. Food and water were available ad libitum.
Rats were trained and tested in a conventional, manually operated two-way active avoidance (shuttlebox) apparatus connected to a high resistance power supply. The box was divided into two compartments of equal size by a partition with one opening. Upon presentation of the 80 dB white noise conditioned stimulus (CS), the animals had 10 seconds to move from one compartment of the shuttlebox into the other. If the rat remained in the same compartment for more than 10 seconds, an intermittent electric shock (approx. 0.2 mA of 0.5-sec duration; intershock interval 2.5 sec), the unconditioned stimulus (UCS), was presented in the grid floor until an escape was performed. […] Intertrial intervals varied at random between 20 and 40 seconds. The following variables were recorded: avoidance (response to CS within 10 sec); escape (response to CS+UCS); escape failures (failure to respond); and intertrial crosses. The animals were trained for 3 consecutive days. Training sessions were run over 15 minutes. […]

[1] = tested on: α2-adrenergic receptor versus D2 receptor; details: literature; cited from earlier work
α2 autoreceptors = details: presynaptic level; antagonism of clonidine; cited from earlier work
α2 adrenoreceptors = details: binding studies; cited from earlier work
D2 dopamine receptor = molecular target: T1, D2 dopamine receptor (Homo sapiens, UniProt P14416); details: at effective antipsychotic treatment; literature; cited from earlier work
T1 construct: In vivo D2 occupancy can be determined using finctional brain imaging technologies such as Positron Emission Tomography (PET); host or cells: brain of treated patients, in vivo imaging
T1 sequence (P14416 whole entry): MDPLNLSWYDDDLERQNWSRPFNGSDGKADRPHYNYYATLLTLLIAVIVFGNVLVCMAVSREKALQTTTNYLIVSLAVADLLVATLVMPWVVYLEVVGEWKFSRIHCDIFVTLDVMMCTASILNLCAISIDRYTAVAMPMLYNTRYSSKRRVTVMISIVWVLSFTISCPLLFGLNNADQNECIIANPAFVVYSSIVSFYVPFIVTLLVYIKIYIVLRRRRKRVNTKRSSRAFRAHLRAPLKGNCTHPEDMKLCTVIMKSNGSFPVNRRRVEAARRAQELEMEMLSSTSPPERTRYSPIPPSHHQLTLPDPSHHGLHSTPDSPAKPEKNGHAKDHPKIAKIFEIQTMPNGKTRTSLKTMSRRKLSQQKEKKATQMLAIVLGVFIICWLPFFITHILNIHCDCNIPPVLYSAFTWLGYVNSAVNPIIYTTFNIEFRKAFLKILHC

α2 receptor = details: idazoxan; stated with Litman et al. 1996; cited from earlier work

SMILES: Cc1cc2c(s1)Nc1ccccc1N=C2N1CCN(C)CC1 [olanzapine]
- Reduction of olanzapine dose required for effective antipsychotic effect through adjunct idazoxan (Wistar rats): ~50%

SMILES: OCCOCCN1CCN(C2=Nc3ccccc3Sc3ccccc32)CC1 [quetiapine]
- Fold less affinity for the α2 adrenergic receptor than for the dopamine D2 receptor [1]: 6-16 fold

SMILES: c1ccc2c(c1)OCC(C1=NCCN1)O2 (single isomer, unassigned; (+)) [(+)-idazoxan]
- Affinity towards the α2 autoreceptors, times higher than (−) idazoxan (α2 autoreceptors): 40 times
- Potency in inhibiting p-[3H]aminoclonidine binding, times more potent than the other enantiomer (α2 adrenoreceptors): 7-8 times

SMILES: Cc1nc2n(c(=O)c1CCN1CCC(c3noc4cc(F)ccc34)CC1)CCCC2 [risperidone]
- In vivo D2 occupancy (D2 dopamine receptor): ≥ 70%
- Fold less affinity for the α2 adrenergic receptor than for the dopamine D2 receptor [1]: 2-16 fold

SMILES: O=C1Cc2cc(CCN3CCN(c4nsc5ccccc45)CC3)c(Cl)cc2N1 [ziprasidone]
- Fold less affinity for the α2 adrenergic receptor than for the dopamine D2 receptor [1]: 100 fold

SMILES: c1ccc2c(c1)OCC(C1=NCCN1)O2 (racemic) [idazoxan, ±-2-(1,4-benzodioxan-2-yl)-d-imidazoline]
- pKi (α2 receptor): ~7.52
